Columns and labels:
Conditions in all cases: scale 0 to 100
[1] = tested on: smartweed; assay: Test E postemergence; assay type: in vivo, Polygonum persicaria
Protocol: […]
At the same time, plants from these crop and weed species and also waterhemp_RES1, (ALS & Triazine resistant common waterhemp, Amaranthus rudis), and waterhemp_RES2, (ALS & HPPD resistant common waterhemp, Amaranthus rudis) were planted in pots containing Sunshine Redi-Earth® planting medium comprising spaghnum peat moss, vermiculite, starter nutrients and dolomitic limestone were treated with postemergence applications of test chemicals formulated in the same manner. […] Treated plants and controls were maintained in a greenhouse for 14 to 21 d, after which time all species were compared to controls and visually evaluated. […]

[2] = tested on: lambsquarters; assay: Test E preemergence; assay type: in vivo, Chenopodium album
Text: (§1) Seeds of plant species selected from corn (Zea mays), soybean (Glycine max), lambsquarters (Chenopodium album), poinsettia, wild (wild poinsettia, Euphorbia heterophylla), pigweed, palmer (palmer pigweed, Amaranthus palmeri), waterhemp (common waterhemp, Amaranthus rudis), surinam grass (Brachiaria decumbens), crabgrass, large (large crabgrass, Digitaria sanguinalis), crabgrass, Brazilian (Brazilian crabgrass, Digitaria horizontalis), panicum, fall (fall panicum, Panicum dichotomiflorum), foxtail, giant (giant foxtail, Setaria faberii), foxtail, green (green foxtail, Setaria viridis), goosegrass (Eleusine indica), johnsongrass (Sorghum halepense), ragweed (common ragweed, Ambrosia elatior), barnyardgrass (Echinochloa crus-galli), sandbur (southern sandbur, Cenchrus echinatus), arrowleaf sida (Sida rhombifolia), ryegrass, Italian (Italian ryegrass, Lolium multiflorum), dayflower, VA (Virginia dayflower, Commelina virginica), field bindweed (Convolvulus arvensis), cocklebur (common cocklebur, Xanthium strumarium), morningglory (Ipomoea coccinea), nightshade (eastern black nightshade, Solanum ptycanthum), kochia (Kochia scoparia), nutsedge, yellow (yellow nutsedge, Cyperus esculentus), smartweed (ladysthumb smartweed, Polygonum persicaria), velvetleaf (Abutilon theophrasti), horseweed (Conyza canadensis), and beggarticks (hairy beggarticks, Bidens pilosa), were planted into a silt loam soil and treated preemergence with test chemicals formulated in a non-phytotoxic solvent mixture which included a surfactant.
(§2) At the same time, plants from these crop and weed species and also waterhemp_RES1, (ALS & Triazine resistant common waterhemp, Amaranthus rudis), and waterhemp_RES2, (ALS & HPPD resistant common waterhemp, Amaranthus rudis) were planted in pots containing Sunshine Redi-Earth® planting medium comprising spaghnum peat moss, vermiculite, starter nutrients and dolomitic limestone were treated with postemergence applications of test chemicals formulated in the same manner. Plants ranged in height from 2 to 18 cm for postemergence treatments (1- to 4-leaf stage). Treated plants and controls were maintained in a greenhouse for 14 to 21 d, after which time all species were compared to controls and visually evaluated. Plant response ratings, summarized in Table E, are based on a scale of 0 to 100 where 0 is no effect and 100 is complete control. A dash (-) response means no test result.

[3] = tested on: dayflower, VA; assay: Test E postemergence; assay type: in vivo, Commelina virginica
Text: as §1, §2

[4] = tested on: pigweed, palmer; assay: Test E postemergence; assay type: in vivo, Amaranthus palmeri
Text: as §1, §2

[5] = tested on: poinsettia, wild; assay: Test E postemergence; assay type: in vivo, Euphorbia heterophylla
Text: as §1, §2

[6] = tested on: cocklebur; assay: Test E preemergence; assay type: in vivo, Xanthium strumarium
Text: as §1, §2

[7] = tested on: sandbur; assay: Test E preemergence; assay type: in vivo, Cenchrus echinatus
Text: as §1, §2

[8] = tested on: nutsedge, yellow; assay: Test E preemergence; assay type: in vivo, Cyperus esculentus
Text: as §1, §2

[9] = tested on: smartweed; assay: Test E preemergence; assay type: in vivo, Polygonum persicaria
Text: as §1, §2

[10] = tested on: kochia; assay: Test E preemergence; assay type: in vivo, Kochia scoparia
Text: as §1, §2

[11] = tested on: barnyardgrass; assay: Test E postemergence; assay type: in vivo, Echinochloa crus-galli
Text: as §1, §2

[12] = tested on: soybean; assay: Test E preemergence; assay type: in vivo, Glycine max
Text: as §1, §2

Work on `CCc1nc(-c2ccc(C(F)(F)F)cc2)nn1Cc1ccnc(C(F)(F)F)c1` [Compound 1, 4-[[5-ethyl-3-[4-(trifluoromethyl)phenyl]-1H-1,2,4-triazol-1-yl]methyl]-2-(trifluoromethyl)pyridine] yielded a Plant response rating ([1]; 125 g ai/ha) of 30, a Plant response rating ([1]; 250 g ai/ha) of 80 and a Plant response rating ([2]; 16 g ai/ha) of 10. It also gave a Plant response rating ([2]; 31 g ai/ha) of 65, a Plant response rating ([2]; 62 g ai/ha) of 90 and a Plant response rating ([2]; 125 g ai/ha) of 95. It also gave a Plant response rating ([2]; 250 g ai/ha) of 95, a Plant response rating ([3]; 16 g ai/ha) of 20 and a Plant response rating ([3]; 31 g ai/ha) of 25. It also gave a Plant response rating ([3]; 62 g ai/ha) of 40, a Plant response rating ([3]; 125 g ai/ha) of 50 and a Plant response rating ([3]; 250 g ai/ha) of 50. The Plant response rating ([4]; 16 g ai/ha) was 80, the Plant response rating ([4]; 31 g ai/ha) was 90 and the Plant response rating ([4]; 62 g ai/ha) was 90. The Plant response rating ([4]; 125 g ai/ha) was 100, the Plant response rating ([4]; 250 g ai/ha) was 100 and the Plant response rating ([5]; 16 g ai/ha) was 60. It also gave a Plant response rating ([5]; 31 g ai/ha) of 70, a Plant response rating ([5]; 62 g ai/ha) of 75 and a Plant response rating ([5]; 125 g ai/ha) of 80. The Plant response rating ([5]; 250 g ai/ha) was 90, the Plant response rating ([6]; 16 g ai/ha) was 0 and the Plant response rating ([6]; 31 g ai/ha) was 0. The Plant response rating ([6]; 62 g ai/ha) was 0, the Plant response rating ([6]; 125 g ai/ha) was 10 and the Plant response rating ([6]; 250 g ai/ha) was 30. The Plant response rating ([7]; 16 g ai/ha) was 0, the Plant response rating ([7]; 31 g ai/ha) was 10 and the Plant response rating ([7]; 62 g ai/ha) was 20. It also gave a Plant response rating ([7]; 125 g ai/ha) of 40, a Plant response rating ([7]; 250 g ai/ha) of 50 and a Plant response rating ([8]; 16 g ai/ha) of 0. For the same molecule, the Plant response rating ([8]; 31 g ai/ha) was 0, the Plant response rating ([8]; 62 g ai/ha) was 0 and the Plant response rating ([8]; 125 g ai/ha) was 0. For the same molecule, the Plant response rating ([8]; 250 g ai/ha) was 10, the Plant response rating ([9]; 16 g ai/ha) was 25 and the Plant response rating ([9]; 31 g ai/ha) was 40. It also gave a Plant response rating ([9]; 62 g ai/ha) of 50, a Plant response rating ([9]; 125 g ai/ha) of 60 and a Plant response rating ([9]; 250 g ai/ha) of 80. The Plant response rating ([10]; 16 g ai/ha) was 20, the Plant response rating ([10]; 31 g ai/ha) was 60 and the Plant response rating ([10]; 62 g ai/ha) was 80. For the same molecule, the Plant response rating ([10]; 125 g ai/ha) was 90, the Plant response rating ([10]; 250 g ai/ha) was 95 and the Plant response rating ([11]; 16 g ai/ha) was 10. It also gave a Plant response rating ([11]; 31 g ai/ha) of 10, a Plant response rating ([11]; 62 g ai/ha) of 15 and a Plant response rating ([11]; 125 g ai/ha) of 20. It also gave a Plant response rating ([11]; 250 g ai/ha) of 30, a Plant response rating ([12]; 16 g ai/ha) of 0 and a Plant response rating ([12]; 31 g ai/ha) of 0. It also gave a Plant response rating ([12]; 62 g ai/ha) of 0, a Plant response rating ([12]; 125 g ai/ha) of 10 and a Plant response rating ([12]; 250 g ai/ha) of 35.
